Data set [1] concerns small peripheral resistance vessels. The data set is described as follows: Wire myography by rs9349379 genotype: vasodilator response to ACh. Format: cell-based. The settings on record: Homo sapiens, 95% CI; for EC50: read-out: ACh pEC50 (converted).
Data set [2] relates to resistance arteries. The data set is described as follows: Wire myography: relaxation to dilator agonists after preconstriction with U46619 (Example 2). Format: cell-based, human. The following applies: median; for IC50 / Emax: Homo sapiens; for Emax: read-out: Emax (maximum relaxation after preconstriction with U46619).
Data set [3] deals with T1, ETA receptor (Homo sapiens, UniProt P25101).
T1 construct: Small peripheral resistance vessels (<400 μm) were carefully dissected from fresh biopsies using a light microscope; from tissue; host or cells: small peripheral resistance arteries from gluteal skin fat biopsies of angina patients
T1 sequence (P25101 21-427): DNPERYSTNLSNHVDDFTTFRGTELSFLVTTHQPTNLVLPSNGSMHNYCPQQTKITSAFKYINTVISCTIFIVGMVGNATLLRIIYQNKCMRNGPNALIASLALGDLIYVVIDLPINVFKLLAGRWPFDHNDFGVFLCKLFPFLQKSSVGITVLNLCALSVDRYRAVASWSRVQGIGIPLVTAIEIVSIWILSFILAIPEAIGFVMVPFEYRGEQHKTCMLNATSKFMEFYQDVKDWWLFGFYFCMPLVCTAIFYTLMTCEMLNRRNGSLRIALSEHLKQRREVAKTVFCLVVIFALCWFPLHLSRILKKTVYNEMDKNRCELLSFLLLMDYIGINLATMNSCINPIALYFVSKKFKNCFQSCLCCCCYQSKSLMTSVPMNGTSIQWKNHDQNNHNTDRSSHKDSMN
The data set is described as follows: ET-1 cumulative concentration response curves after antagonist preincubation, Schild plot pA2 (Example 3). The settings on record: microvessels pre-treated with antagonist. Format: cell-based.

Data set [4] has as its target T1, ETA receptor. The data set is described as follows: Paired ET-1 CCRCs with and without ETA antagonist, pKB by Schild regression (Examples 4 and 5). Format: cell-based. The settings on record: for Kb: pKB. The protocol:
(§1) Ex vivo pharmacological assessment of peripheral vascular function was performed on patients who volunteered to undergo a gluteal skin fat biopsy within 4 weeks of the invasive coronary function assessment. The biopsy was obtained under sterile conditions using local anaesthesia with lidocaine (2%). Small peripheral resistance vessels (<400 μm) were carefully dissected from fresh biopsies using a light microscope. About 2 mm length vessels were mounted on 40-μm stainless steel wires for isometric myography in multi-channel myograph chambers (DMT, Denmark) filled with physiological saline solution. […] This vascular biology sub-study was an extension of our work in INOCA subjects that was previously published in this journal.^31A The detailed methods are described in the Supplementary material online, Appendix.
(§2) The peripheral vascular sensitivity to ET-1 (pEC50) and maximum vasoconstriction to ET-1 (Eumax) were determined. For the antagonist studies, the affinity (KB) of BQ123 was first determined in paired vessels from individuals and calculated using Schild regression. The pKB (−log10 KB) values were compared between each genotype as an indicator of whether or not patients of different genotypes are likely to respond equally well to an ETA antagonist used clinically.

For data set [5], the system named is resistance arteries. The data set is described as follows: Wire myography: contractile response to constrictor agonists, relative to KPSS (Example 2). The settings on record: for Emax (percentage of maximum response to KPSS solution) / pEC50: median. Format: cell-based, human.
Data set [6] relates to small peripheral resistance vessels. The data set is described as follows: Wire myography by rs9349379 genotype: vasoconstriction to ET-1. Format: cell-based, human. The following applies: 95% CI. As for the experimental part: as §1, §2
Data set [7] deals with human mammary resistance arteries. The settings on record: compared with bosentan; cited from earlier work.
A short description of data set [8]: GTN half-life and remaining dose. The following applies: human, in vivo, other: intra-arterial; after 10 min; read-out: share of the dose bioavailable.
For data set [9], the system named is coronary microvascular endothelial function. The settings on record: 10 mg PO daily for 6 months; IC-ACh; cited from earlier work.
For data set [10] the following is noted: subjects with low myocardial perfusion homogeneity; cited from earlier work.
The conditions of data set [11]: cited from earlier work.
The subject of data set [12] is small peripheral resistance arteries. The data set is described as follows: Reversal of an established ET-1-mediated vessel constriction, wire myography. The following applies: clinically relevant concentrations. Format: cell-based, human.

Structures are written as SMILES. “Also recorded” adds a separate entry of the source. Read-outs that look alike come from different tables or passages of the source. Where a SMILES comes first, the peptide text is derived from it.

What is called Emax is the size of the effect at its maximum, as opposed to the concentration needed. The IC50 is the midpoint of a concentration-inhibition curve. Low values mean inhibition by little substance, high ones a need for much substance. On to `CC(=O)OCC[N+](C)(C)C` [ACh, Acetylcholine], for which the Emax in data set [1] (genotype AA) stood at 77.7%; in data set [1] (genotype AG), 80.2%; in data set [1] (genotype GG) it was 92.5%; with resistance arteries [2] (MVA patients), 77.6%; with resistance arteries [2] (VSA patients), 79%; in the data set with resistance arteries [2] (control subjects), 98.7%. The EC50 in data set [1] (genotype AA) was 52.5 nM; in [1] (genotype AG) it was 55 nM; in data set [1] (genotype GG), 110 nM. The IC50 in the data set with resistance arteries [2] (MVA patients) was 79.4 nM; with resistance arteries [2] (VSA patients) it was 79.4 nM; in the data set on resistance arteries [2] (control subjects) it was 50.1 nM. The “Emax (maximum relaxation after preconstriction with U46619)” value in the data set with resistance arteries [2] (control subjects) is listed as 98%.

As usually defined, the Kb is the affinity of an antagonist, worked out from how it opposes an agonist. Low readings indicate a more potent antagonist, high ones a less potent antagonist. For the molecule `CC(C)C[C@@H]1NC(=O)[C@@H](C(C)C)NC(=O)[C@@H]2CCCN2C(=O)[C@@H](CC(=O)O)NC(=O)[C@@H](Cc2c[nH]c3ccccc23)NC1=O` [BQ123] (HELM PEPTIDE1{L.[dW].[dD].P.[dV]}$PEPTIDE1,PEPTIDE1,1:R1-5:R2$$$V2.0), the “effect on the ET-1 constrictor response (shift of ET-1 CCRC)” value on ETA receptor [3] is “also inhibits the ET-1 response; also recorded: an effect comparable to that of zibotentan”. The “effect on the ET-1 CCRC and constrictor responses” value on ETA receptor [4] (all genotype groups) was “parallel rightward shift of the CCRC to ET-1 in all arteries; also recorded: fully blocked the constrictor responses in all of the groups”. Moreover, the Kb on ETA receptor [4] (all genotypes pooled, mean (95% CI)) is 29.5 nM; at ETA receptor [4] (rs9349379 genotype AA, ±SEM), 85.1 nM; on ETA receptor [4] (rs9349379 genotype AG, ±SEM), 16.2 nM; on ETA receptor [4] (rs9349379 genotype GG, ±SEM), 38.9 nM.

Turning to `CCCC[C@@H](NC(=O)[C@@H](Cc1cn(C(=O)OC)c2ccccc12)NC(=O)[C@H](CC(C)(C)C)NC(=O)N1[C@H](C)CCC[C@@H]1C)C(=O)O` [BQ788], the “effect on the ET-1 constrictor response (shift of ET-1 CCRC)” value at ETA receptor [3] is listed as “only minimal shift in the ET-1 response; also recorded: negligible effect on the ET-1 constrictor response”.

As usually defined, the pEC50 is the negative decadic logarithm of the EC50, by convention in mol/L. Read a low pEC50 as a large EC50. For `CC[C@H](C)[C@H](NC(=O)[C@H](CC(=O)O)NC(=O)[C@H](CC(C)C)NC(=O)[C@H](Cc1c[nH]cn1)NC(=O)[C@@H]1CSSC[C@H](N)C(=O)N[C@@H](CO)C(=O)N[C@H]2CSSC[C@H](NC(=O)[C@H](CCC(=O)O)NC(=O)[C@H](CCCCN)NC(=O)[C@H](CC(=O)O)NC(=O)[C@H](CCSC)NC(=O)[C@H](CC(C)C)NC(=O)[C@H](CO)NC(=O)[C@H](CO)NC2=O)C(=O)N[C@@H](C(C)C)C(=O)N[C@@H](Cc2ccc(O)cc2)C(=O)N[C@@H](Cc2ccccc2)C(=O)N1)C(=O)N[C@H](C(=O)N[C@@H](Cc1c[nH]c2ccccc12)C(=O)O)[C@@H](C)CC` [ET-1], the “Emax (percentage of maximum response to KPSS solution)” value in the data set on resistance arteries [5] (MVA patients) was 121%; in the data set with resistance arteries [5] (VSA patients), 125%; in the data set with resistance arteries [5] (control subjects), 100%. The pEC50 in the data set on resistance arteries [5] (MVA patients) came to 9.6; in the data set with resistance arteries [5] (VSA patients) it was 9.5; in the data set with resistance arteries [5] (control subjects), 9.3. For the same molecule, in the data set with resistance arteries [5] (all groups), the “sensitivity of resistance arteries to constrictor effects of ET-1 compared with U46619” value is “around 50 fold”. Moreover, the “ET-1 Emax (maximum vasoconstriction)” value is 122.3% in data set [6] (genotype AA), 115.5% in [6] (genotype AG) and 129.7% in data set [6] (genotype GG). Further, the “ET-1 pEC50” value stood at 9.34 in data set [6] (genotype AA), 9.45 in data set [6] (genotype AG) and 9.32 in data set [6] (genotype GG).

Regarding `CC(C)C[C@H](NC(=O)N1CCCCCC1)C(=O)N[C@H](Cc1cn(C)c2ccccc12)C(=O)N[C@H](Cc1ccccn1)C(=O)O` [FR139317], the “blocking of ET-1 induced contractions” value in data set [7] was “less effective than the dual ETAR/ETBR antagonist bosentan”.

`O=[N+]([O-])OCC(CO[N+](=O)[O-])O[N+](=O)[O-]` [GTN, glyceryl trinitrate]: the bioavailability at 10 min in [8] was found to be 3%.

In the case of `CCCCC[C@H](O)/C=C/[C@@H]1[C@@H](C/C=C\CCCC(=O)O)[C@H]2CO[C@@H]1C2` [U46619], the “Emax (percentage of maximum response to KPSS solution)” value in the data set on resistance arteries [5] (MVA patients) is listed as 143%; with resistance arteries [5] (VSA patients), 141%; in the data set with resistance arteries [5] (control subjects), 109%. The pEC50 amounted to 8.0 with resistance arteries [5] (MVA patients), 7.5 in the data set with resistance arteries [5] (VSA patients) and 7.50 in the data set on resistance arteries [5] (control subjects).

Consider `CCCCN(CCCC)C(=O)CN1C[C@H](c2ccc3c(c2)OCO3)[C@@H](C(=O)O)[C@@H]1c1ccc(OC)cc1` [atrasentan], for which the “coronary microvascular endothelial function” value in [9] was “improved coronary microvascular endothelial function”.

In the case of `COc1cc(OC)nc(O[C@H](C(=O)O)C(OC)(c2ccccc2)c2ccccc2)n1` [darusentan], the flow homogeneity entry in data set [10] was “increases flow homogeneity”.

Regarding `Cc1cc2c(cc1CC(=O)c1sccc1S(=O)(=O)Nc1onc(C)c1Cl)OCO2` [sitaxentan], the exercise time entry in data set [11] (HFpEF patients, compared to placebo) is recorded as “increase in exercise time compared to placebo”. For the same molecule, the hepatotoxicity result in [11] (in vivo) is on record as “withdrawn from development owing to hepatotoxicity”.

Consider `COc1nc(C)cnc1NS(=O)(=O)c1cccnc1-c1ccc(-c2nnco2)cc1` [zibotentan, N-(3-Methoxy-5-methylpyrazin-2-yl)-2-[4-(1,3,4-oxadiazol-2-yl)phenyl]pyridine-3-sulfonamide], for which the “reversal or inhibition of an established constrictor response to ET-1” value was “concentration-dependent inhibition of an established constrictor response to ET-1; also recorded: fully reversed an established endothelin-1 vasoconstriction” in data set [12]; “concentration-dependent inhibition of an established constrictor response to ET-1; also recorded: reversed ET-1-induced vasoconstriction independently of G allele status; also recorded: reversed an established ET-1-mediated vasoconstriction; also recorded: rapidly and fully reversed the established endothelin-1 constrictor response” in data set [12] (listed as Zibotentan).

The record behind these values is US12233061B2, “Microvascular angina” (THE UNIVERSITY COURT OF THE UNIVERSITY OF GLASGOW, priority 2019, dated 2025).
